Patent US20120115896A1, “ISOGENIC HUMAN CELL LINES COMPRISING MUTATED CANCER ALLELES AND PROCESS USING THE CELL LINES” (priority 2008, published 2012)
Read-outs that look alike come from different tables or passages of the source.

Tests used:
[1] = tested on: hTERT-HME1 cells carrying KRAS (G13D) KI; assay: Drug assay: cell viability by ATP content (96 h), KI versus parental cells; ΔKI pharmarray analysis
[2] = tested on: hTERT-HME1 cells carrying BRAF (V600E) KI; assay: as above
[3] = tested on: hTERT-HME1 DKI cells carrying PIK3CA (H1047R) and EGFR (delE746-A750); assay: Drug assay: cell viability by ATP content (96 h), DKI versus parental cells; ΔKI pharmarray analysis
[4] = tested on: hTERT-HME1 cells carrying EGFR (delE746-A750) KI; assay: Drug assay: cell viability by ATP content (CellTiter-Glo, 96 h), KI versus parental cells; ΔKI pharmarray analysis
[5] = tested on: hTERT-HME1 cells carrying PIK3CA (E545K and H1047R) KI; assay: Drug assay: cell viability by ATP content (96 h) and Hoechst/propidium iodide staining, KI versus parental cells; ΔKI pharmarray analysis
[6] = tested on: hTERT-HME1 cells carrying PIK3CA (E545K and H1047R) KI; details: Log(M) −5.10

In the case of `O=C([O-])C[C@H](O)C[C@H](O)/C=C/c1c(C2CC2)nc2ccccc2c1-c1ccc(F)cc1.O=C([O-])C[C@H](O)C[C@H](O)/C=C/c1c(C2CC2)nc2ccccc2c1-c1ccc(F)cc1.[Ca+2]` [itavastatin, Itavastatin Ca], the “ΔKI KRAS” value [1] is reported as 0, the “ΔKI BRAF” value [2] is reported as 0 and the “pharmarray: differential response of BRAF mutated cells versus WT” value ([2]; hTERT-HME1, FIG. 5H) is reported as “more resistant”. The “ΔKI BRAF” value ([2]; listed as OGC-072) was −7.2, the “ΔKI PIK3CA + EGFR” value [3] was 0 and the “ΔKI EGFR” value [4] was 0. The “ΔKI PIK3CA” value [5] was 0.
For `O=c1cc(N2CCOCC2)oc2c(-c3ccccc3)cccc12` [LY294002, LY 294002], the “ΔKI PIK3CA” value [6] was 3.62.
For `COc1cccc(-c2cc(=O)c3ccccc3o2)c1N` [PD 98059], the “ΔKI KRAS” value ([1]; Log(M) −3.57) was 0, the “ΔKI KRAS” value ([1]; Log(M) −4.05) was 0 and the “ΔKI KRAS” value ([1]; Log(M) −4.52) was 0. For the same compound, the “ΔKI BRAF” value ([2]; Log(M) −3.57) was 0, the “ΔKI BRAF” value ([2]; Log(M) −4.05) was 0 and the “ΔKI BRAF” value ([2]; Log(M) −4.52) was 4. The “ΔKI PIK3CA + EGFR” value ([3]; Log(M) −3.57) was 0, the “ΔKI PIK3CA + EGFR” value ([3]; Log(M) −4.05) was 0 and the “ΔKI PIK3CA + EGFR” value ([3]; Log(M) −4.52) was 0. For the same compound, the “ΔKI EGFR” value ([4]; Log(M) −3.57) was 0, the “ΔKI EGFR” value ([4]; Log(M) −4.05) was 3.5 and the “ΔKI EGFR” value ([4]; Log(M) −4.52) was 0. For the same compound, the “ΔKI PIK3CA” value ([5]; Log(M) −3.57) was 0, the “ΔKI PIK3CA” value ([5]; Log(M) −4.05) was 0 and the “ΔKI PIK3CA” value ([5]; Log(M) −4.52) was 0.
With `CCCCCc1cc(O)c2c(c1)OC(C)(C)[C@@H]1CCC(C)=C[C@@H]21` [THC] the “ΔKI KRAS” value [1] was 0, the “ΔKI BRAF” value [2] was 0.3 and the “ΔKI BRAF” value ([2]; Log(M) −4.60) was 0.46. The “ΔKI BRAF” value ([2]; listed as OGC-089) was 0.88, the “ΔKI PIK3CA + EGFR” value [3] was 0 and the “ΔKI EGFR” value [4] was 0. For the same compound, the “ΔKI PIK3CA” value [5] was 0.
In the case of `CCCCC/C=C\C/C=C\C/C=C\C/C=C\CCC(C)C(=O)NCCF` (stereo not drawn) [Met-F-AEA], the “ΔKI KRAS” value [1] is reported as 0, the “ΔKI BRAF” value ([2]; listed as OGC-079) is reported as 0.3 and the “ΔKI PIK3CA + EGFR” value [3] is reported as 0. The “ΔKI EGFR” value [4] was 0 and the “ΔKI PIK3CA” value [5] was 0.
With Sodium Phenylbutyrate the “ΔKI KRAS” value ([1]; Log(M) −1.97) was 0, the “ΔKI KRAS” value ([1]; Log(M) −2.44) was 0 and the “ΔKI KRAS” value ([1]; Log(M) −2.92) was 0. For the same compound, the “ΔKI BRAF” value ([2]; Log(M) −1.97) was 0, the “ΔKI BRAF” value ([2]; Log(M) −2.44) was 0 and the “ΔKI BRAF” value ([2]; Log(M) −2.92) was 0. The “ΔKI PIK3CA + EGFR” value ([3]; Log(M) −1.97) was 0, the “ΔKI PIK3CA + EGFR” value ([3]; Log(M) −2.44) was 0 and the “ΔKI PIK3CA + EGFR” value ([3]; Log(M) −2.92) was 0. For the same compound, the “ΔKI EGFR” value ([4]; Log(M) −1.97) was 0, the “ΔKI EGFR” value ([4]; Log(M) −2.44) was 0 and the “ΔKI EGFR” value ([4]; Log(M) −2.92) was 0. The “ΔKI PIK3CA” value ([5]; Log(M) −1.97) was 0, the “ΔKI PIK3CA” value ([5]; Log(M) −2.44) was 0 and the “ΔKI PIK3CA” value ([5]; Log(M) −2.92) was 0.
`CCCCCCCCCCCCCCCCCCOCC(COC(=O)OC1C(O)C(O)C(O)C(CO)C1O)OC` [OGC-023, 1L6-Hydroxymethyl-chiro-inositol-2-(R)-2-O-methyl-3-O-octadecyl-sn-glycerocarbonate] was tested, and the “ΔKI KRAS” value ([1]; Log(M) −4.14) was 0, the “ΔKI KRAS” value ([1]; Log(M) −4.62) was 0 and the “ΔKI KRAS” value ([1]; Log(M) −5.10) was 0. For the same compound, the “ΔKI BRAF” value ([2]; Log(M) −4.14) was 0, the “ΔKI BRAF” value ([2]; Log(M) −4.62) was 0 and the “ΔKI BRAF” value ([2]; Log(M) −5.10) was 0. The “ΔKI PIK3CA + EGFR” value ([3]; Log(M) −4.14) was 0, the “ΔKI PIK3CA + EGFR” value ([3]; Log(M) −4.62) was 3.32 and the “ΔKI PIK3CA + EGFR” value ([3]; Log(M) −5.10) was 2.4. The “ΔKI EGFR” value ([4]; Log(M) −4.14) was 0, the “ΔKI EGFR” value ([4]; Log(M) −4.62) was 0 and the “ΔKI EGFR” value ([4]; Log(M) −5.10) was 0. The “ΔKI PIK3CA” value ([5]; Log(M) −4.14) was 0, the “ΔKI PIK3CA” value ([5]; Log(M) −4.62) was 0 and the “ΔKI PIK3CA” value ([5]; Log(M) −5.10) was 0.
For `c1cc(-c2cnn3cc(-c4ccc(OCCN5CCCCC5)cc4)cnc23)ccn1` [Compound C], the “ΔKI KRAS” value [1] was 0, the “ΔKI KRAS” value ([1]; Log(M) −4.70) was 0 and the “ΔKI BRAF” value [2] was 0. For the same compound, the “ΔKI BRAF” value ([2]; Log(M) −4.70) was 0, the “ΔKI PIK3CA + EGFR” value [3] was 0 and the “ΔKI PIK3CA + EGFR” value ([3]; Log(M) −4.70) was 0. The “ΔKI EGFR” value [4] was 0, the “ΔKI EGFR” value ([4]; Log(M) −4.70) was 0 and the “ΔKI PIK3CA” value [5] was 0. The “ΔKI PIK3CA” value ([5]; Log(M) −4.70) was 0.
